Laboratory results taken from patent publication US8846947B2, “Benzimidazoles and related analogs as sirtuin modulators” (GlaxoSmithKline LLC, priority 2008, dated 2014).
Like-named read-outs stand apart in the source and are kept apart here.

Target: T1, SIRT1 (Homo sapiens, UniProt Q96EB6)
T1 sequence (Q96EB6 1-747): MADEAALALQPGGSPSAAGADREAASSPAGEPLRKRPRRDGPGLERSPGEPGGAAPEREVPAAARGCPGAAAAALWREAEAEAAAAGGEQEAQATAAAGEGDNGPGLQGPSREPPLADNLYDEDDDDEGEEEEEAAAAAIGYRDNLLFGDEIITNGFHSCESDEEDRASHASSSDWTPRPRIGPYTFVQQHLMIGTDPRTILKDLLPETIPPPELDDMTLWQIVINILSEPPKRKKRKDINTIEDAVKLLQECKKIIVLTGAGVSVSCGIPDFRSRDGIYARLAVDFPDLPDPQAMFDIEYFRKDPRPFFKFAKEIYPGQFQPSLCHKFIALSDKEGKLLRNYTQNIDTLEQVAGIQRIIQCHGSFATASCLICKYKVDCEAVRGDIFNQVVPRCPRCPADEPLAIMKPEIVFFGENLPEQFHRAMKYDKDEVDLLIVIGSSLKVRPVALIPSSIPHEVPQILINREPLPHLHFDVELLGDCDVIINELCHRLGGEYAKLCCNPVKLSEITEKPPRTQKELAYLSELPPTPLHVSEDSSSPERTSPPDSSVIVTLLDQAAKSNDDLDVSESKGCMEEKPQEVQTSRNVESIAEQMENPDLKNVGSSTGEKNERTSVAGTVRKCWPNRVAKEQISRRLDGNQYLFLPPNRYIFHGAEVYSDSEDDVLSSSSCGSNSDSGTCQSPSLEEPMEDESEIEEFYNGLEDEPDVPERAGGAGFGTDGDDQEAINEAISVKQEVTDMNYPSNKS
Assay: Mass spectrometry based SIRT1 deacetylase activation assay (acetylated p53-derived peptide substrate)
Assay type: biochemical

[1] = 0.5 μM peptide substrate, 120 μM βNAD+, 10 nM SIRT1, 25 min at 25° C.
[2] = 0.5 μM peptide substrate, 120 μM βNAD+, 10 nM SIRT1, 25 min at 25° C., read-out: EC1.5
[3] = 0.5 μM peptide substrate, 120 μM βNAD+, 10 nM SIRT1, 25 minutes at 25° C.

Cc1nc(-c2ccccc2)sc1-c1nc2c(C(=O)Nc3nccs3)cccc2[nH]1 [Compound 408]
Fold Act. (percent maximum fold activation) [1]: A (Fold activation >200%) | EC1.5 [2]: < 1 µM

Cc1cnc(NC(=O)c2cc(F)cc3nc(-c4ccc(Cl)cc4C(F)F)[nH]c23)s1 [Compound 822]
EC1.5 [3]: A (EC1.5<1.0 uM) | Fold Act. (percent maximum fold activation) [3]: A (Fold activation >200%)

O=C(Nc1nccs1)c1cccc2[nH]c(-c3ccnn3-c3ccccc3)nc12 [Compound 254]
EC1.5: A (EC1.5<1.0 uM) | Fold Act. (percent maximum fold activation): A (Fold activation >200%)

O=C(Nc1nccs1)c1cccc2[nH]c(-c3ccoc3)nc12 [Compound 229]
EC1.5: B (EC1.5 1-25 uM) | Fold Act. (percent maximum fold activation): A (Fold activation >200%)

CC(C)(C)c1ccc(OCCN2CCOCC2)c(-c2nc3c(C(=O)Nc4nccs4)cccc3[nH]2)c1 [Compound 547]
Fold Act. (percent maximum fold activation) [1]: B (Fold Activation <200%) | EC1.5 [2]: 1 to 25 µM

O=C(Nc1nccs1)c1cccc2[nH]c(-c3ccccc3OC3CCNC3)nc12 (centres unmarked) [Compound 459, 2-(2-(pyrrolidin-3-yloxy)phenyl)-N-(thiazol-2-yl)-1H-benzo[d]imidazole-4-carboxamide]
Fold Act. (percent maximum fold activation) [1]: A (Fold activation >200%) | EC1.5 [2]: 1 to 25 µM

Cc1cnc(NC(=O)c2cccc3[nH]c(-c4ccc(OC[C@H](O)CO)cc4C(F)(F)F)nc23)s1 [Compound 743]
EC1.5 [3]: A (EC1.5<1.0 uM) | Fold Act. (percent maximum fold activation) [3]: A (Fold activation >200%)

O=C(Nc1cccnc1)c1cc(F)cc2[nH]c(-c3ccc(OC[C@@H](O)CO)cc3C(F)F)nc12 [Compound 841]
EC1.5 [3]: A (EC1.5<1.0 uM) | Fold Act. (percent maximum fold activation) [3]: A (Fold activation >200%)

O=C(Nc1cccnc1)c1cccc2[nH]c(-c3ccnn3-c3ccccc3)nc12 [Compound 311]
EC1.5: B (EC1.5 1-25 uM) | Fold Act. (percent maximum fold activation): A (Fold activation >200%)

O=C(Nc1ccc[n+]([O-])c1)c1cccc2[nH]c(-c3ccc(Cl)cc3C(F)(F)F)nc12 [Compound 331]
EC1.5: A (EC1.5<1.0 uM) | Fold Act. (percent maximum fold activation): A (Fold activation >200%)

O=C(Nc1ccccc1OCC(O)CO)c1cccc2[nH]c(-c3ccc(Cl)cc3C(F)(F)F)nc12 (centres unmarked) [Compound 726]
EC1.5 [3]: B (EC1.5 1-25 uM) | Fold Act. (percent maximum fold activation) [3]: A (Fold activation >200%)

O=C(NC1CCNCC1)c1cccc2[nH]c(-c3ccc(F)cc3C(F)(F)F)nc12 [Compound 454]
Fold Act. (percent maximum fold activation) [1]: B (Fold Activation <200%) | EC1.5 [2]: > 25 µM

O=C(Nc1cccc2[nH]c(-c3cccc(C(F)(F)F)c3)nc12)c1cnccn1 [Compound 335]
EC1.5: B (EC1.5 1-25 uM) | Fold Act. (percent maximum fold activation): A (Fold activation >200%)

O=C(Nc1nccs1)c1cccc2[nH]c(-c3cccc(Oc4ccccc4)c3)nc12 [Compound 224]
EC1.5: B (EC1.5 1-25 uM) | Fold Act. (percent maximum fold activation): A (Fold activation >200%)

O=C(Nc1nccs1)c1cccc2[nH]c(-c3cc(N4CC[C@@H](F)C4)ccc3C(F)(F)F)nc12 [Compound 667]
EC1.5 [3]: B (EC1.5 1-25 uM) | Fold Act. (percent maximum fold activation) [3]: A (Fold activation >200%)

Cc1csc(NC(=O)c2cccc3[nH]c(-c4cccc(C(F)(F)F)c4)nc23)n1 [Compound 206]
EC1.5: B (EC1.5 1-25 uM) | Fold Act. (percent maximum fold activation): A (Fold activation >200%)

O=C(NC1CN2CCC1CC2)c1cccc2[nH]c(-c3cccc(C(F)(F)F)c3)nc12 (centres unmarked) [Compound 272]
EC1.5: B (EC1.5 1-25 uM) | Fold Act. (percent maximum fold activation): A (Fold activation >200%)

O=C(Nc1ncccn1)c1cccc2[nH]c(-c3cccc(C(F)(F)F)c3)nc12 [Compound 241]
EC1.5: C (EC1.5 >25 uM) | Fold Act. (percent maximum fold activation): B (Fold Activation <200%)

O=C(Nc1ccccn1)c1cc(F)cc2nc(-c3ccccc3C(F)F)[nH]c12 [Compound 834]
EC1.5 [3]: A (EC1.5<1.0 uM) | Fold Act. (percent maximum fold activation) [3]: A (Fold activation >200%)
